Where a SMILES comes first, the peptide text is derived from it. [ ]: non-standard residue; d: D form. αMeP = C[C@@]1(C(=O)O)CCCN1
Experiments:
Assay type in all cases: physicochemical
[1] = Long-term (6 month) chemical stability, total impurities by HPLC; conditions: for Total Impurities: 25 ± 2° C./60 ± 5% RH
Method: The long-term (6 month) chemical stability of Form A and amorphous trofinetide were tested under the same conditions: 25±2° C./60±5% relative humidity (RH). […] [table]

[2] = Dynamic vapor sorption-desorption (DVS) analysis
Method: DVS analysis was carried out TA Instruments Q5000 Dynamic Vapor Sorption analyzer. The instrument was calibrated with standard weights and a sodium bromide standard for humidity. Samples were analyzed at 25° C. with a maximum equilibration time of 60 minutes in 10% relative humidity (RH) steps from 5 to 95% RH (adsorption cycle) and from 95 to 5% RH (desorption cycle). Form A is non-hygroscopic.

[3] = Stability under humidity conditions (two days exposure, XRPD / water content)

Row | SMILES | Long-term chemical stability compared with amorphous trofinetide ([1]; 6 month, 25±2° C./60±5% RH) | Total Impurities ([1]; 1 month) [%] | Total Impurities ([1]; 3 months) [%] | Total Impurities ([1]; 6 months) | Total Impurities ([1]; Initial) | Hygroscopicity ([2]; 25° C.) | Solid form after DVS by XRPD ([2]; after DVS) | Moisture uptake (adsorption cycle) ([2]; exposed from 5% RH to 95% RH) | Moisture loss (desorption cycle) ([2]; exposed from 95% RH to 5% RH) | Stability under humidity conditions ([3]; large range of humidity conditions) | Solid form change under extreme dry conditions (XRPD) ([3]; open container exposed under 0% RH for two days)
1 | C[C@@]1(C(=O)N[C@@H](CCC(=O)O)C(=O)O)CCCN1C(=O)CN [Form A, (2S)-2-[[(2S)-1-(2-aminoacetyl)-2-methylpyrrolidine-2-carbonyl]amino]pentanedioic acid] (H-Gly-[αMeP]-Glu-OH) | more stable than amorphous trofinetide | 0.0 | 0.03 | <PLOQ | <PLOQ | non-hygroscopic | remained as trofinetide Form A | little moisture uptake | little moisture loss | stable under a large range of humidity conditions | lost the water and became disordered
2 | C[C@@]1(C(=O)N[C@@H](CCC(=O)O)C(=O)O)CCCN1C(=O)CN [amorphous trofinetide (Batch 1), glycyl-L-2-methylprolyl-L-glutamic acid] (H-Gly-[αMeP]-Glu-OH) |  | 0.3 | 0.8 | 1.0% | 0.3% |  |  |  |  |  | 
3 | C[C@@]1(C(=O)N[C@@H](CCC(=O)O)C(=O)O)CCCN1C(=O)CN [amorphous trofinetide (Batch 2), glycyl-L-2-methylprolyl-L-glutamic acid] (H-Gly-[αMeP]-Glu-OH) |  |  | 0.6 | 0.9% | 0.2% |  |  |  |  |  | 
4 | C[C@@]1(C(=O)N[C@@H](CCC(=O)O)C(=O)O)CCCN1C(=O)CN [amorphous trofinetide (Batch 3), glycyl-L-2-methylprolyl-L-glutamic acid] (H-Gly-[αMeP]-Glu-OH) |  | 0.2 | 0.6 | 0.8% | 0.2% |  |  |  |  |  | 

Reference: patent US20260062382A1, “CRYSTALLINE FORMS OF TROFINETIDE” (ACADIA Pharmaceuticals Inc., priority 2021, published 2026)
